# Results as given in PMC3917258, “6-Bromoisatin Found in Muricid Mollusc Extracts Inhibits Colon Cancer Cell Proliferation and Induces Apoptosis, Preventing Early Stage Tumor Formation in a Colorectal Cancer Rodent Model” (Marine Drugs, 2013).
# “And” between values parts separate entries of the source, which are not always exact repeats. Equal entries are not always repeated.
# Assays:
# HT29 cells = assay: MTT cell viability assay; type: cell-based, human; conditions: for reduction of cell viability: relative to DMSO control, 12 h
# Experimental: All media and chemicals were purchased from Sigma Aldrich (Castle Hill, NSW, Australia) unless otherwise stated. HT29 human colorectal cancer cell line (passage no. 36-42) were cultured (37 °C and 5% CO2) in Dulbecco’s Modified Eagle’s Medium (DMEM) supplemented with 4500 mg/L L-glutamine, 10% FBS, 100 U/mL Penicillin/Streptomycin and 1% Non-essential Amino Acid (100×), until the cells reached 70% confluence. The cells were harvested from flasks by trypsinization (1× Trypsin-EDTA) and were seeded (20,000 cells/well) into clear 96-well plates (Costar®, Mt Martha, VIC, Australia) for measurement of cell viability and white (opaque) 96-well plates (Interpath, Heidelberg West, VIC, Australia) for determination of apoptosis and necrosis. HT29 cells were incubated for 48 h, then the media was removed and the cells were washed with PBS. […] 1% DMSO controls were also included on each plate. Staurosporine (5 µM) for apoptosis and lysis solution (5 μL/well, Promega, Alexandria, NSW, Australia) for necrosis were added to the white plates in triplicate, as positive controls. All cells were treated for 12 h. Morphological changes in the cells were observed on an Olympus CK2 inverted optical microscope (×400 magnification) 12 h after treatment. To measure cell viability, the MTT assay was applied, which measures the reduction of MTT tetrazolium salt to formazan, as previously described. To measure necrosis and apoptosis, CytoTox-ONE Homogeneous Membrane Integrity Assay reagent (Promega) and Caspase-Glo 3/7® assay (Promega) were applied respectively, according to our previous study. These assays were all repeated in triplicate on three separate occasions (n = 3).
# [1] = General observations for signs of illness; type: in vivo, mice (C57BL/6J); conditions: mice, 0.025-0.1 mg/g daily oral gavage two weeks
# Experimental: (§1) This experiment was conducted under Flinders animal welfare approval number 751-10. A total of 38 wild-type (C57BL/6J) male mice aged 10 weeks were obtained from the Animal Resource Centre, Perth, Western Australia. Mice were divided randomly into 4 groups (ten mice in each treatment group and 8 mice in the sunflower oil only control group) and housed in 8 cages (four to five mice per cage). The mice were given water and food (rodent chow) ad libitum and maintained at the temperature of 22 ± 2 °C and humidity of 80% ± 10% with a 12 h light/dark cycle. Mice were weighed every five days and on the day of kill, and monitored daily for signs of illness, such as weight and hair loss, diarrhea, constipation, rectal bleeding, labored breathing, lethargy, eye and nose discharge.
# [2] = Body and liver weight of treated mice; type: in vivo, mice (C57BL/6J); conditions: mean ± S.E.; for Liver weight / Liver/Body (%): day of kill; for Total weight Gain / Body weight (Day1) / Body weight (Day5) / Body weight (Day10) / Body weight (Day14): mice
# Experimental: as §1
# (§2) To detect the early stage prevention of colon cancer, an established AARGC rodent model with injection of the carcinogen AOM was used. Synthetic 6-bromoisatin at 3 different dosages (0.025, 0.05 and 0.1 mg/g body weight) was administered to mice by daily oral gavage in 100 µL sunflower oil, containing 0.02% Vitamin E, for two weeks. The control group was gavaged with sunflower oil (containing 0.02% Vitamin E) only. After two weeks, all mice were injected with a single intraperitoneal (i.p.) injection of AOM at a dosage of 10 mg/kg bodyweight and euthanized 6 h later by cervical dislocation under anesthesia. […] The distal colon of each mouse was excised and fixed in 10% buffered formalin for 24 h and then embedded in paraffin for histological and immunohistological examination.
# [3] = system: distal colonic epithelial cells; assay: AARGC mouse model: Ki-67 proliferation index; type: in vivo, mice (C57BL/6J); conditions: distal colon, compared to oil control
# Experimental: as §1, §2
# Ki-67 is a cell cycle associated antigen and regarded as a useful proliferation marker. Proliferative activity of distal colonic epithelial cells was measured using an antibody specific for the nuclear proliferating antigen ki-67 (rat-anti-mouse clone TEC-3, Dako, Campbellfield, VIC, Australia) in combination with an immunohistochemistry detection method in paraffin embedded sections, as previously described. […]
# [4] = 0.025 mg/g daily oral gavage 14 days
# [5] = 0.05 mg/g daily oral gavage 14 days
# [6] = 0.1 mg/g daily oral gavage 14 days
structure (smiles),measurement,setting,value
"O=C1Nc2cc(Br)ccc2C1=O [6-bromoisatin, 6-Bromoindole-2,3-dione]",reduction of cell viability,HT29 cells; 0.01 mg/mL,no significant reduction
same,reduction of cell viability,HT29 cells; 0.025 mg/mL,26%
same,reduction of cell viability,HT29 cells; 0.05 mg/mL,53%
same,reduction of cell viability,HT29 cells; 1 mg/mL,64%
same,IC50,"HT29 cells; Homo sapiens, HT-29, HT29 cells, MTT, 12 h treatment, 1% DMSO",223 µM and 50 µg/mL
same,diarrhea / stool consistency,[1],no diarrhea or change in stool consistency
same,signs of illness,[1],did not show any signs of illness
same,Liver weight,[2]; [4],1.0 ± 0.1 g
same,Liver/Body (%),[2]; [4],4.4 ± 0.6%
same,Total weight Gain,[2]; [4],1.4 ± 0.8 g
same,Body weight (Day1),[2]; 0.025 mg/g daily oral gavage,22.2 ± 1.3 g
same,Body weight (Day5),[2]; 0.025 mg/g daily oral gavage,22.7 ± 1.3 g
same,Body weight (Day10),[2]; 0.025 mg/g daily oral gavage,23.0 ± 1.3 g
same,Body weight (Day14),[2]; 0.025 mg/g daily oral gavage,23.6 ± 1.4 g
same,Liver weight,[2]; [5],1.2 ± 0.1 g
same,Liver/Body (%),[2]; [5],5.2 ± 0.6%
same,Total weight Gain,[2]; [5],1.4 ± 1.0 g
same,Body weight (Day1),[2]; 0.05 mg/g daily oral gavage,22.6 ± 1.2 g
same,Body weight (Day5),[2]; 0.05 mg/g daily oral gavage,23.4 ± 1.2 g
same,Body weight (Day10),[2]; 0.05 mg/g daily oral gavage,23.4 ± 1.5 g
same,Body weight (Day14),[2]; 0.05 mg/g daily oral gavage,24.1 ± 1.6 g
same,Liver weight,[2]; [6],1.3 ± 0.1 g
same,Liver/Body (%),[2]; [6],5.3 ± 0.4%
same,Total weight Gain,[2]; [6],1.4 ± 0.8 g
same,Body weight (Day1),[2]; 0.1 mg/g daily oral gavage,22.3 ± 1.3 g
same,Body weight (Day5),[2]; 0.1 mg/g daily oral gavage,22.6 ± 1.3 g
same,Body weight (Day10),[2]; 0.1 mg/g daily oral gavage,23.3 ± 1.3 g
same,Body weight (Day14),[2]; 0.1 mg/g daily oral gavage,23.8 ± 1.6 g
same,cell proliferation,[3]; 0.025 mg/g daily oral gavage two weeks,did not show a significant anti-proliferative effect
same,cell proliferation,[3]; 0.05 mg/g daily oral gavage two weeks,significantly reduced
same,reduction in cell proliferation,[3]; 0.1 mg/g daily oral gavage two weeks,more than 50%
